Experiments:
[1] = system: lipopolysaccharide-induced lung injury; assay: rat model of acute lung injury induced by airway infusion of LPS; differential cell counts in BALF; type: in vivo, Wistar rat
Procedure: Acute lung injury (ALI) is a systemic uncontrolled inflammatory response caused by various direct and indirect injury factors, accompanied by alveolar epithelial cells and capillary endothelial cell injury, its pathogenesis is still unclear, and there is still no effective treatment means. A rat model with airway infusion of lipopolysaccharide (LPS) is a commonly used animal model. In this study, airway infusion of LPS induced acute lung injury in rats. The animals were injected compounds via tail vein. After four hours, lung lavage and bronchoalveolar lavage fluid were collected, and differential cell were counts and measured to represent the efficacy of test compounds in preventing lipopolysaccharide-induced lung injury.
Except for group 1, all other groups were received pulmonary perfusion of lipopolysaccharide. Animals were anesthetized by 3-5% isoflurane, and 100 μl of LPS solution (1 mg/ml) was introduced into rat trachea with a micro-atomizer intubation, and after 4 hours, the animals were killed with chloral hydrate (750 mg/kg). The lungs were gently perfused three times in situ with 4 ml of PBS+1% albumin. After lavage, bronchoalveolar lavage fluid (BALF) was preserved in ice, and then the number of eosinophils (EOS), macrophages (Mac), neutrophils (Neu), lymphocytes (Lym) and the total number of cells were measured.

mouse models of asthma = mouse models of asthma (ovalbumin sensitization and aerosol challenge); BALF cell counts, Penh, BALF cytokines; type: in vivo, BALB/c mice
Procedure: On the first day and the 14th day of the experiment, the asthma models were sensitized by intraperitoneal injection, and the asthma group was given sensitization solution containing 20 μg of ovalbumin and 2 mg of alum suspension each time.
3.3.2 On the days 28, 29 and 30, the mice of 2-4 groups were stimulated with aerosol, which included dissolving 100 mg OVA in 10 ml PBS and adding 5 μl Triton X-100, and atomized by atomizing inhalation facility (Buxco) for 30 minutes, and then the nebulizer was turned off. Finally, the mice were kept in the inhalation box for additional 7 minutes, and following by being taken out. The negative control mice were exposed in aerosolized PBS for 30 minutes.
Group 1 (PBS control group) were injected intraperitoneally with PBS at 2 hours before PBS sensitization on the days 28, 29 and 30. Group 2 (OVA control group) were injected intraperitoneally with PBS at 2 hours before OVA sensitization on the days 28, 29 and 30. Group 3 were injected intraperitoneally with ZD018 at 2 hours before OVA sensitization on the days 28, 29 and 30. Group 4 were intragastrically administrated with dexamethasone at 2 hours before OVA sensitization on the days 28, 29 and 30.
On the 31st (24 hours after the last challenge), the Penh of mice were detected with a Buxco mouse non-invasive pulmonary function instrument. The change of Penh was determined after atomization stimulating of 300 μl doubling concentration of methacholine (Mch). The stimulating concentrations from low to high were 0, 0.78, 1.56, 3.125, 6.25, 12.5, 25 and 50 g/L, respectively. The mean value of Penh was recorded at each stimulating concentration level of Mch. The Penh value at each stimulating concentration of Mch was converted to a percentage of the Penh value at the time of the stimulating normal saline (The Penh value stimulated by Mch/The Penh value stimulated by normal saline, 100%), and represented by penh %, which was used as an evaluation index for mice airway response.
3.5 The observation of airway inflammation: the cytological examination of bronchoalveolar lavage and bronchoalveolar lavage fluid (BALF).
3.6 IL-13 and IL-5 cytokine levels in bronchoalveolar lavage fluid (BALF) were tested with Elisa Kit (R&D, USA).

[2] = test doses of 5 mg/kg, 1 mg/kg and 0.2 mg/kg i.v. 3 hours before LPS perfusion, BALF 4 hours after LPS, compared with the model group (FIG. 4)
[3] = ZD018 1 mg/kg i.p. 2 hours before OVA challenge on days 28, 29 and 30 (FIG. 6)

## Slit2D2(C386S)-HSA: recombinant fusion protein of Slit2 D2 domain (cysteine at position 386 mutated to serine) and HSA, SEQ ID NO: 2
[1]; both at 5 mg/kg dose i.v. 3 hours before LPS perfusion (FIG. 4)
  efficacy compared with Slit2D2-HSA recombinant protein: superior to Slit2D2-HSA recombinant protein
[1]; [2]
  increase of cell number (total number of cells in BALF): significantly inhibited
  number of neutrophils in bronchoalveolar lavage fluid: significantly controlled
Mouse models of asthma; ZD018 1 mg/kg i.p. 2 hours before OVA challenge on days 28, 29 and 30 (FIG. 5)
  accumulation of eosinophils in alveolar fluid (BALF): significantly inhibit
Mouse models of asthma; [3]
  accumulation of lymphocytes in alveolar fluid (BALF): inhibit
  accumulation of neutrophils in alveolar fluid (BALF): inhibit
Mouse models of asthma; ZD018 1 mg/kg i.p., Elisa Kit (FIG. 8)
  IL-5 cytokine level in bronchoalveolar lavage fluid (BALF): inhibit
Mouse models of asthma; ZD018 1 mg/kg i.p., Elisa Kit (FIG. 9)
  IL-13 cytokine level in bronchoalveolar lavage fluid (BALF): inhibit
Mouse models of asthma; ZD018 1 mg/kg i.p., day 31, 24 hours after the last challenge, Mch 0-50 g/L, compared with control group G2 (FIG. 7)
  enhanced pause (Penh) index stimulated by methacholine (Mch): effectively inhibit

Reference: patent publication US11149071B2, “Fusion protein Slit2D2(C386S)-HSA and use thereof in prevention and/or treatment of lung inflammation” (Asclepius (Suzhou) Technology Company Group Co., Ltd., priority 2017, dated 2021)
